Test results reported in patent publication US20230107926A1, “A METHOD FOR TREATING A BIOLOGICAL OBJECT” (OPTICEPT TECHNOLOGIES AB, priority 2020, published 2023).

Assays:
Roses (variety: Athena) = assay: Vacuum impregnation on roses, appearance during vase storage at room temperature; type: in vivo; conditions: fructose 2-15 wt%, VI without PEF, versus untreated control
Excerpt: Roses (variety: Athena) were purchased form a local distributor. The roses were transported from Kenya. The roses arrived at the test site 4 days after harvest.
The treatment according to the present invention was applied to the roses immediately after the arrival. The roses were placed vertically in an impregnation solution, making sure that the flower bud was not immersed in the impregnation solution, thus only the stem and leaves were immersed. The impregnation solution contained sugar (fructose at a concentration of 2-15 wt%). Vacuum was applied reaching a minimum pressure range of 60 - 300 mbar, and with a total treatment time of about 12 minutes.
To continue with the trial performed, after that the vacuum impregnation treatment was finished, the roses were taken out from the impregnation solution. They were then immersed in water, again excluding the flower buds, to wash the sugars from the surface and then placed in a cold room for 24 hours to recover. They were in this case not dried in any way.
After 24 hours the roses were moved to room temperature in order to evaluate the results at the end user conditions. They were stored in a vase, with only the lower part of the stems immersed in water, and the water was renewed every two days.
Roses were stored at room temperature for 13 days after the treatment (Right: roses treated according to the present invention, left: control roses, i.e. not treated).

[1] = test system: Cuttings of Pelargonium interspecific: Calliope M Dark Red; assay: Comparative trial of vacuum impregnation (VI) on unrooted Pelargonium cuttings: storage, rooting, losses, acceptability; type: in vivo; conditions: for % Losses after storage: stored at 8° C, losses before sticking; for % Losses / % Rooted / %Not rooted / % Acceptable YPL: 21 days after sticking; for % Acceptable YPL: YPL = young plant
Excerpt: Comparative trials were made to investigate the effect of a method according to the present invention, that is a method preferably involving vacuum impregnation and which definitely is free from any PEF step, and a method involving a PEF step, either alone or together with an impregnation step, and of course also compared with untreated control(s). Cuttings of Pelargonium interspecific: Calliope M Dark Red was used as the testing material. When testing the method according to the second aspect of the present invention, the following vacuum impregnation parameters (protocol) were used: A pressure falling time of 10 minutes, a holding time of the obtained low pressure of 1 minute and then 15 minutes rising time when the pressure was increased again to atmospheric pressure. The minimum pressure was set at 220 mbar and trehalose 10% was used as the impregnation solution. For the PEF trial and step (not according to the present invention), the parameters used were the following: 500 V in continuous system, 250 µs pulse width and 50 PPV (pulses per volume), 0.3 KW. For the group of cuttings that was subjected only to vacuum impregnation, that is by a method according to the present invention, an additional rinsing step was also performed. Moreover, each group tested consisted of 80 unrooted cuttings, and not any repetitions were performed. When the pelargonium cuttings were received they were processed immediately. After the treatment, the groups were placed in perforated trays and kept inside slightly opened boxes. The boxes were stored 7 days at 8° C. After 7 days of storage the cuttings were evaluated and counted. The damaged (due to Botrytis), rotten or withered ones are removed. These are called losses before sticking. The rooting, losses and acceptability results were obtained 21 days after sticking. […] It should be noted that data for losses after storage were obtained after […] of storage.

SMILES: O=C(CO)[C@@H](O)[C@H](O)[C@H](O)CO [sugar, fructose]
- general appearance of roses (Roses (variety: Athena); stem and leaves immersed, 13 days at room temperature): clear improvement
- browning and wilting of the flower buds (Roses (variety: Athena); room temperature storage): delayed
- freshness of the treated leaves (Roses (variety: Athena); room temperature storage): preserve freshness better

SMILES: OC[C@H]1O[C@H](O[C@H]2O[C@H](CO)[C@@H](O)[C@H](O)[C@H]2O)[C@H](O)[C@@H](O)[C@@H]1O [Trehalose 10%, trehalose]
- % Losses after storage ([1]; No PEF, only VI (220 mbar)): 4%
- % Losses ([1]; No PEF, only VI): 0%
- % Rooted ([1]; No PEF, only VI): 88%
- %Not rooted ([1]; No PEF, only VI): 8%
- % Acceptable YPL ([1]; No PEF, only VI): 46%
- % Losses after storage ([1]; VI + PEF (500 V, 250 µs, 50 PPV)): 0%
- % Losses ([1]; VI + PEF): 10%
- % Rooted ([1]; VI + PEF): 75%
- %Not rooted ([1]; VI + PEF): 15%
- % Acceptable YPL ([1]; VI + PEF): 35%
